Reference: BigSolDB 2.1

With `OC(Cn1cncn1)(Cn1cncn1)c1ccc(F)cc1F` the solubility (mole fraction) (in ethanol, 293.15 K) was 0.0105, the solubility (mole fraction) (in ethanol, 298.15 K) was 0.0123 and the solubility (mole fraction) (in ethanol, 303.15 K) was 0.014. The solubility (mole fraction) (in ethanol, 308.15 K) was 0.0157, the solubility (mole fraction) (in ethanol, 313.15 K) was 0.0183 and the solubility (mole fraction) (in ethanol, 318.15 K) was 0.023. It also gave a solubility (mole fraction) (in ethanol, 323.15 K) of 0.0282, a solubility (mole fraction) (in water, 293.15 K) of 7.76e-05 and a solubility (mole fraction) (in water, 298.15 K) of 7.99e-05. It also gave a solubility (mole fraction) (in water, 303.15 K) of 8.28e-05, a solubility (mole fraction) (in water, 308.15 K) of 8.58e-05 and a solubility (mole fraction) (in water, 313.15 K) of 9.06e-05. It also gave a solubility (mole fraction) (in water, 318.15 K) of 9.59e-05 and a solubility (mole fraction) (in water, 323.15 K) of 0.000104.
